From a melting point compilation (Tetko et al.; mined from patent text by program, amines drawn as free bases though some values may be those of a salt)

Structure (SMILES)	melting point
CCC12CCC3=C(CCc4cc(OC)ccc43)C1=CCC2=O (stereo not drawn)	77 to 80 °C
CCOC(=O)Cn1c(=S)n(Cc2ccc(Cl)c(Cl)c2)c(=S)c2ccccc21	155 to 156 °C
COC(=O)CCc1ccc(OCc2nc(-c3ccccc3)c(-c3ccccc3)o2)cc1	92 to 95 °C
COC(=O)CCC(=O)CCl	8 to 13 °C
CC(=O)NC1CCCCc2sccc21 (stereo not drawn)	179 to 180 °C
CC(C)Cn1c(CNC(=O)OC(C)(C)C)c(-c2ccccc2F)c2cc(C(=O)O)ccc2c1=O	213 to 214 °C
CCCCC(=O)NCCc1c(OC)ccc2ccccc12	69 to 75 °C
Cc1nc2cccc(OCC(C)(C)C(=O)NC3CCC3)c2c(N)c1C(=O)O	183 to 187 °C
Cc1ccc(S(=O)(=O)OCCN2Cc3ccccc3C2=O)cc1	75 °C
CCCCc1nc2c(N)nc3ccccc3c2n1CCCCCS(C)(=O)=O	173 to 175 °C
CCc1c(C(=O)c2cc(Cl)cc(Cl)c2)[nH]c(=O)[nH]c1=O	242 to 243 °C
CCc1cccc(CC(=O)O)c1OCCn1cc(C(=O)NCc2ccc(C(F)(F)F)cc2)c(OC(C)C)n1	110 to 111 °C
COc1ccc(CNc2c(C)c(C)c3c(c2C)C(c2ccccc2)C(C)(C)O3)cc1 (stereo not drawn)	113 to 115 °C
O=S1(=O)NCN(CCF)c2cc(Cl)cc(Cl)c21	180 to 184 °C
CC(=O)Nc1ccc(OCC2CCC=CO2)cc1 (stereo not drawn)	114 to 116 °C
CC(C)(C)OC(=O)NC[C@@H]1CNC(=O)O1	116 °C
CC(C)(C)OC(=O)N1CCc2cc(N)c(N)cc2CC1	147 to 149 °C
CSC1C(=O)Nc2ccc(Oc3ccc(Cl)cc3)cc21 (stereo not drawn)	166 to 169 °C
CC(=O)Nc1ccc(O)cc1F	124 °C
O=c1[nH]c2ccc(Cl)cc2s1	212 to 213 °C
Cc1cc(N)c(I)c(C)n1	103 to 110 °C
CC(=O)c1cc(NC(=O)NCCN(CCNC(=O)Nc2cc(C(C)=O)cc(C(C)=O)c2)CCNC(=O)Nc2cc(C(C)=O)cc(C(C)=O)c2)cc(C(C)=O)c1	197 to 198 °C
O=C1Cc2c(cc(Br)c3ccccc23)C(c2ccccc2F)N1 (stereo not drawn)	257 to 260 °C
Cc1cc(-c2cncc(OC3SCC(O)C(O)C3O)c2)ccc1C#N (stereo not drawn)	198 to 200 °C
Cc1cc(-c2nc3cc(F)cc(F)c3s2)ccc1N	201 to 203 °C
CN(C(=S)Nc1ccccc1)C1CCN(CCc2c[nH]c3ccccc23)CC1	194 °C

Structure (SMILES)	melting point
CCC1(CO)C=NC(c2nn(Cc3ccccc3F)c3ccccc23)O1 (stereo not drawn)	137 to 139 °C
Clc1cc2c(s1)-n1c(nnc1CN1CCOCC1)CN=C2c1ccccc1Cl	224 to 226 °C
O=C(O)C1CC(=O)N(c2ccc(O)cc2)C1 (stereo not drawn)	201 to 204 °C
CCOC(=O)c1cc2cc(CC#N)ccc2o1	76 to 77 °C
Nc1cc(N)c(Cl)cc1Cl	138 to 141 °C
CCOCC(=O)Nc1c(NCC(C)C)cc(C)n2nnnc12	182 to 185 °C
Nc1ccc(CCC(=O)Nc2ccc(Cl)cc2Cl)cc1N	149 to 150 °C
CN(C)CCCOc1ccc2ccc(NC(=O)c3c(F)cccc3F)nc2n1	190 °C
CN(N)C1=NOCc2ccc(Cl)cc21	124 to 125 °C
O=[N+]([O-])c1cc(Cn2ccnc2)ccc1NCc1cccnc1	171 °C
O=C(O)Cc1cccc(OCCCCl)c1	83 to 84 °C
Cc1ccc(C(=O)Nc2cccc(C(F)(F)F)c2)cc1-c1ccc2scnc2c1	200 to 202 °C
Cc1c(N)cccc1-c1ccnc(Nc2ccc(C(=O)N3CCOCC3)cc2)n1	183 to 184 °C
C[Si](C)(C)C#Cc1ccc(C#Cc2ccc(F)cc2)cc1	144 to 146 °C
COCCN(CC1=CCC(Oc2ccccc2)([N+](=O)[O-])C=C1)C(=O)C(Cl)Cl (stereo not drawn)	116 to 117 °C
COc1ccc(Cl)cc1-n1c(-c2cc(C(F)(F)F)cc(C(F)(F)F)c2)n[nH]c1=O	206 to 207 °C
OC1(C(c2ccccc2)c2ccccc2)CSC2=NCCCCN21 (stereo not drawn)	123 to 125 °C
COC(=O)c1cc(S(C)(=O)=O)nc(Cl)n1	127 to 129 °C
CC1OC(=O)N2c3ccc(OCCCC(F)(F)F)cc3CCC12 (stereo not drawn)	79.1 to 79.2 °C
COc1c(C)c(C)c(OCc2ccccc2)c(C)c1CN(C)CCOc1cc(C)ccc1C(C)C	138 to 141 °C
CC1=Cc2cc(Br)ccc2S1(=O)=O	149 to 151 °C
Fc1ccc(-c2ncn(CCCSc3ccccc3)c2-c2ccncc2)cc1	98 to 99 °C
CSc1ccc(-n2c(-c3ccc(Cl)cc3)nc(SC)c(C#N)c2=O)cc1	206 to 207 °C
CC(C)c1ccc(N(Cc2cnn(Cc3ccccc3)c2)C(=O)C2CCCc3c(O)cccc32)cc1 (stereo not drawn)	130 °C
OC1(C#Cc2ccc(-c3ccccc3)cc2)CN2CCC1CC2 (stereo not drawn)	217 to 218 °C
CC(C)P1(=O)c2ccccc2CN1c1ccccc1 (stereo not drawn)	145 to 147 °C

Structure (SMILES)	melting point
O=C(c1ccc(-c2cccs2)cc1)N1Cc2ccccc2Nc2ccccc21	114 to 116 °C
Cc1ccc(-c2ncc3c(n2)CCCCC3)nc1-c1ccncc1	198 to 200 °C
COc1ccc(C2=CCN(Cc3ccccc3)CC2)cc1OC	94 to 96 °C
COc1c(C=O)ccc(OCC(=O)O)c1Cc1ccc2c(Cl)cccc2c1	191 to 192 °C
NC(=O)Cc1c[nH]c2cc(OCc3ccccc3)ccc12	189 to 192 °C
Cc1ccc2nc(-c3ccc(C#N)cc3)c(CNC(=O)CC(C)C)n2c1	231 to 233 °C
COC(=O)[C@H]1CO[C@@H](C(C)(C)C)N1C(=O)Cl	78 °C
O=C1c2ccccc2C(=O)N1Cc1cccc(CN2C(=O)c3ccccc3C2=O)n1	> 250 °C
CCOC(=O)[C@H](CCC1CCCCC1)N[C@H]1COc2ccccc2N(CC(=O)O)C1=O	135 to 139 °C
CCn1cc(C(=O)O)c(=O)c2cc(F)c(N3CC4CC3CN4)c(F)c21 (stereo not drawn)	233 to 236 °C
Cc1ccnc(CSCCNc2ncc(Cc3cccnc3)c(=O)[nH]2)c1Br	81 to 85 °C
CNS(=O)(=O)Cc1ccc2[nH]cc(CCN=CNc3ccccc3)c2c1	72 to 73 °C
N#Cc1csc(Oc2ccc(-c3ccc(Oc4scc(C#N)c4C#N)cc3)cc2)c1C#N	262 to 264 °C
CC(C)[C@@H]1CC[C@@H](C)C[C@H]1O[C@@H]1OC(=O)[C@@H]2[C@H]1C2(C)C	82 °C
CCOC(=O)c1sc(SC)c2c1CCc1sc(-c3ccccc3)nc1-2	153 to 154 °C
O=[N+]([O-])c1ccc2snc(-c3ccccc3)c2c1	130 °C
CCCNCC(O)COc1ccc2c(=O)cc(-c3ccccc3)oc2c1 (stereo not drawn)	145 to 147 °C
O=C(Nc1ccc(C(F)(F)F)cc1)NC1CCS(=O)(=O)CC1	196 to 198 °C
CCCSc1sc(C(=O)O)c2c1-c1c(cnn1C)CC2	216 to 217 °C
O=C1c2ccc(SCc3ccccc3)cc2CC1Br (stereo not drawn)	88 °C
Cn1ccnc1-c1ccc(O)cc1	239 to 242 °C
Cc1c(CC(=O)O)c2ccccc2c(=O)n1Cc1ccc(Cl)c(Cl)c1	218 to 220 °C
CC1(C)CC(N(c2nc(F)nc(N(C3CC(C)(C)N(O)C(C)(C)C3)C3CC(C)(C)N(O)C(C)(C)C3)n2)C2CC(C)(C)N(O)C(C)(C)C2)CC(C)(C)N1O	254 to 257 °C
COc1ccc(C(=O)C2=C(O)C(=O)N(c3ccc(C)nn3)C2c2ccc(OC)cc2)cc1 (stereo not drawn)	259 °C
Nc1nc2ccccc2c2c1nc(-c1ccccc1)n2CCCCNC(=O)c1cccnc1	84.5 to 86.1 °C
Cc1cc(C(=O)N2Cc3cccn3Cc3ccccc32)ccc1[N+](=O)[O-]	246 to 248 °C

Structure (SMILES)	melting point
CC1Nc2ccc(-c3ccc(F)c(C#N)c3)cc2C(C)(C)O1 (stereo not drawn)	184 to 186 °C
COc1ccc(C(=O)c2ccccc2N)cc1	76 to 77 °C
CC(C)N1CC(C(C(N)=O)(c2ccccc2)c2ccccn2)C1 (stereo not drawn)	140 to 141 °C
CC1(C)CCC(C)(C)c2cc(NC(=O)c3ccc(C(=O)O)cn3)ccc21	206 to 207 °C
NC(=O)c1c(Cl)c(Cl)c(Cl)c(Cl)c1C(=O)O	113 to 114 °C
CCCCCNC1=CC(=O)C(=O)c2ccccc21	> 215 °C
NCc1cc(-c2csc(N=C(N)N)n2)ccn1	> 210 °C
NC1=Nc2ccc(-c3cccc(Cl)c3)cc2C12CCCCC2	118 to 120 °C
COC(=O)c1ccc2cc(CCCCc3cc4ccc(C(=O)OC)cc4o3)oc2c1	130 to 131 °C
CS(=O)(=O)c1ccc(S(=O)(=O)N2CCn3c(c(C(N)=O)c(Cl)c3-c3ccccc3)C2)cc1	258 to 259 °C
Cc1[nH]c2ccc(F)cc2c1C(=O)NC1CCN(CCc2ccccc2)CC1	159 to 162 °C
Cc1ccc(-c2nc(CCl)co2)o1	93 to 94 °C
CN(N=Cc1ccc([N+](=O)[O-])cc1)C1=NOCc2ccc(Cl)cc21	251 °C
CCn1ccc(=O)c(O)c1C	204 to 205 °C
O=C(Nc1cccc(O)c1)C(=O)N1CCC(Cc2ccc(F)cc2)CC1	175 to 179 °C
Cc1ccccc1C(=O)N[C@@H](CC(C)C)C(=O)N[C@@H](C(C)C)[C@@H](O)c1c(-c2ccccc2)c1=O	101 to 105 °C
Nc1nc(N)c(CCCCc2ccc(C(=O)N[C@@H](CCC(=O)O)C(=O)O)cc2)c(O)n1	169 to 171 °C
COc1ccc(F)cc1C(C)(C)CC(O)(Cn1ccc(=N)c2ccccc21)C(F)(F)F (stereo not drawn)	137 to 140 °C
COC(=O)N[C@@H](Cc1ccccc1)[C@H](O)CN1C[C@H]2CCCC[C@H]2C[C@H]1C(=O)NOC(C)(C)C	194 to 195 °C
CNc1nc(-c2ccc(-c3ccccc3)cc2)c(C(=O)OC)s1	> 230 °C
CC1CC(=O)N(c2ccc(Cl)cc2)C(=O)C1	163 to 164 °C
CC(C)CN(C=NS(=O)(=O)c1c(Cl)nc2ccc(C3CC3)nn12)CC(C)C	154 to 160 °C
O=C1CCCN1C(=O)c1ccc(O)cc1	179 to 182 °C
CN(C)N=Nc1c(Br)csc1C(N)=O	194 to 196 °C
COc1cc2ncnc(Nc3cccc(Cl)c3F)c2cc1O	265 to 268 °C
